The text below walks through data of ChEMBL document CHEMBL2150876, “Cosmomycin C inhibits signal transducer and activator of transcription 3 (STAT3) pathways in MDA-MB-468 breast cancer cell” (Bioorg Med Chem, 2011).

By IC50 is commonly meant the concentration that inhibits the measured activity by half.

Assay [1] has as its system MDA-MB-468. The experiment in a line: Effect on STAT3 protein level in human MDA-MB-468 cells after 24 hrs by Western blot analysis. It counts as functional, cell-based. For orientation: A western blot detects proteins with antibodies after separation by electrophoresis.
Assay [2] concerns the target Signal transducer and activator of transcription 3 (Homo sapiens) (UniProt P40763). Description: Inhibition of STAT3 expressed in human HeLa cells after 24 hrs by renilla dual-luciferase reporter gene assay. It counts as cell-based. For orientation: Reporter assays use an easily measured gene product as a stand-in for the process of interest.
Assay [3] relates to MDA-MB-468. The experiment in a line: Cytotoxicity against human MDA-MB-468 cells assessed as cell viability after 24 hrs by WST1 assay. It counts as functional, cell-based. Background: Tetrazolium assays rely on reduction of a dye to a coloured formazan, in cell work by metabolically active cells.
Assay [4] deals with DU-145. The experiment in a line: Cytotoxicity against human DU145 cells assessed as cell viability after 24 hrs by WST1 assay. It counts as functional, cell-based.
For assay [5], the system named is MCF7. The experiment in a line: Cytotoxicity against human MCF7 cells assessed as cell viability at 10 to 500 nM after 24 hrs by WST1 assay. It counts as functional, cell-based.
The test system of assay [6] is HCT-116. Description: Cytotoxicity against human HCT116 cells assessed as cell viability at 10 to 500 nM after 24 hrs by WST1 assay. It counts as functional, cell-based.
Assay [7] addresses Signal transducer and activator of transcription 3 (Homo sapiens) (UniProt P40763). Description: Inhibition of STAT3 phosphorylation at Tyr705 in human MDA-MB-468 cells after 24 hrs by Western blot analysis. It counts as cell-based.
For assay [8] the target is unchanged. The experiment in a line: Suppression of STAT3 mediated Mcl-1 expression in human MDA-MB-468 cells assessed as complete inhibition at 200 nM by immunoblotting assay. It counts as cell-based.
The target is the same in assay [9]. Description: Suppression of STAT3 mediated Bcl-XL expression in human MDA-MB-468 cells assessed as complete inhibition at 200 nM by immunoblotting assay. It counts as cell-based.
Assay [10] shares this target. Description: Inhibition of translocation of STAT3 into nucleus in human MDA-MB-468 cells at 200 nM after 24 hrs […] by immunoblotting method. It counts as cell-based.
Assay [11] shares this target. The experiment in a line: Suppression of STAT3 mediated cyclinD1 expression in human MDA-MB-468 cells at G0/G1 phase by immunoblotting assay. It counts as cell-based.
Assay [12] concerns MDA-MB-468. Description: Induction apoptosis in human MDA-MB-468 cells assessed as procaspase-3-mediated PARP cleavage after 24 hrs by Western blotting method. It counts as functional, cell-based.
Assay [13] relates to MDA-MB-468. Description: Cell cycle arrest in human MDA-MB-468 cells assessed as accumulation at G0/G1 phase at 50 nM after 24 hrs using propidium iodide staining by FACS flow cytometry (reference value: 49.13%). It counts as functional.
Assay [14] has as its system MDA-MB-468. The experiment in a line: Cell cycle arrest in human MDA-MB-468 cells assessed as accumulation at S phase at 50 nM after 24 hrs using propidium iodide staining by FACS flow cytometry (reference value: 12.46%). It counts as functional.
For assay [15], the system named is MDA-MB-468. Description: Cell cycle arrest in human MDA-MB-468 cells assessed as accumulation at G2/M phase at 50 nM after 24 hrs using propidium iodide staining by FACS flow cytometry (reference value: 31.39%). It counts as functional.
For assay [16], the system named is MDA-MB-468. The experiment in a line: Cell cycle arrest in human MDA-MB-468 cells assessed as accumulation at subG1 phase at 50 nM after 24 hrs using propidium iodide staining by FACS flow cytometry (reference value: 7.01%). It counts as functional.
The test system of assay [17] is MDA-MB-468. Description: Cell cycle arrest in human MDA-MB-468 cells assessed as accumulation at G0/G1 phase at 200 nM after 24 hrs using propidium iodide staining by FACS flow cytometry (reference value: 49.13%). It counts as functional.
Assay [18] has as its system MDA-MB-468. The experiment in a line: Cell cycle arrest in human MDA-MB-468 cells assessed as accumulation at S phase at 200 nM after 24 hrs using propidium iodide staining by FACS flow cytometry (reference value: 12.46%). It counts as functional.
The test system of assay [19] is MDA-MB-468. Description: Cell cycle arrest in human MDA-MB-468 cells assessed as accumulation at G2/M phase at 200 nM after 24 hrs using propidium iodide staining by FACS flow cytometry (reference value: 31.39%). It counts as functional.
Assay [20] concerns MDA-MB-468. The experiment in a line: Cell cycle arrest in human MDA-MB-468 cells assessed as accumulation at subG1 phase at 200 nM after 24 hrs using propidium iodide staining by FACS flow cytometry (reference value: 7.01%). It counts as functional.
The subject of assay [21] is MDA-MB-468. The experiment in a line: Cell cycle arrest in human MDA-MB-468 cells assessed as accumulation at G0/G1 phase at 500 nM after 24 hrs using propidium iodide staining by FACS flow cytometry (reference value: 49.13%). It counts as functional.
The subject of assay [22] is MDA-MB-468. The experiment in a line: Cell cycle arrest in human MDA-MB-468 cells assessed as accumulation at S phase at 500 nM after 24 hrs using propidium iodide staining by FACS flow cytometry (reference value: 12.46%). It counts as functional.
Assay [23] concerns MDA-MB-468. The experiment in a line: Cell cycle arrest in human MDA-MB-468 cells assessed as accumulation at G2/M phase at 500 nM after 24 hrs using propidium iodide staining by FACS flow cytometry (reference value: 31.39%). It counts as functional.
For assay [24], the system named is MDA-MB-468. Description: Cell cycle arrest in human MDA-MB-468 cells assessed as accumulation at subG1 phase at 500 nM after 24 hrs using propidium iodide staining by FACS flow cytometry (reference value: 7.01%). It counts as functional.
The target of assay [25] is Signal transducer and activator of transcription 3 (Homo sapiens) (UniProt P40763). Description: Inhibition of STAT3 phosphorylation at Tyr705 in human MDA-MB-468 cells at 500 nM after 24 hrs by Western blot analysis. It counts as cell-based.
Chain of Signal transducer and activator of transcription 3 (Homo sapiens) (P40763 whole entry): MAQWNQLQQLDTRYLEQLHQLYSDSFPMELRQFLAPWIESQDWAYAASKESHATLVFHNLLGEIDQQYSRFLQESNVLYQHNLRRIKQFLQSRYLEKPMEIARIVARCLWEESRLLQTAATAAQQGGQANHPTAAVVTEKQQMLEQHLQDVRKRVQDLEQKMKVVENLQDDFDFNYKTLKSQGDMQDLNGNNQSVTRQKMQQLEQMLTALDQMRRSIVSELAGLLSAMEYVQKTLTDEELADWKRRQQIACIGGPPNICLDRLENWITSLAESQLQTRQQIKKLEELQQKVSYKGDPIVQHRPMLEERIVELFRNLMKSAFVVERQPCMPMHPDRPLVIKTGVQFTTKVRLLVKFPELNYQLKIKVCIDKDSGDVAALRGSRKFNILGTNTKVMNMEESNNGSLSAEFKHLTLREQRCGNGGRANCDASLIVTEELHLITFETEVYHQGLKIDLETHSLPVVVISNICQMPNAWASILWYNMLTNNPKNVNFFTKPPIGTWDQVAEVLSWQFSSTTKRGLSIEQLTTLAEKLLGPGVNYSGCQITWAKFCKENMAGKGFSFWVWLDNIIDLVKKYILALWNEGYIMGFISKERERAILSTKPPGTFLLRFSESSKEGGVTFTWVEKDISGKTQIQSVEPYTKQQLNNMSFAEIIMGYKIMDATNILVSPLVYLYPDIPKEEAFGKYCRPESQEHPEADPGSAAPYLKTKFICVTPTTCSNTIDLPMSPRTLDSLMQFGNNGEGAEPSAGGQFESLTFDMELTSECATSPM
Assay [26] has the same target. Description: Inhibition of STAT3 phosphorylation at Ser727 in human MDA-MB-468 cells after 24 hrs by Western blot analysis. It counts as cell-based.
Assay [27] shares this target. Description: Inhibition of translocation of STAT3 into nucleus in human MDA-MB-468 cells assessed as localization in cytoplasm at 200 nM after 24 hrs […] by Western blotting method. It counts as cell-based.
The target is the same in assay [28]. Description: Suppression of STAT3 mediated Mcl-1 expression in human MDA-MB-468 cells by immunoblotting assay. It counts as cell-based.
The target is the same in assay [29]. The experiment in a line: Suppression of STAT3 mediated VEGF expression in human MDA-MB-468 cells by immunoblotting assay. It counts as cell-based.
For assay [30] the target is unchanged. Description: Suppression of STAT3 mediated cyclinD1 expression in human MDA-MB-468 cells by immunoblotting assay. It counts as cell-based.
The target is the same in assay [31]. The experiment in a line: Suppression of STAT3 mediated Bcl-XL expression in human MDA-MB-468 cells by immunoblotting assay. It counts as cell-based.
Assay [32] has the same target. The experiment in a line: Suppression of STAT3 mediated survivin expression in human MDA-MB-468 cells by immunoblotting assay. It counts as cell-based.

Active and inactive are the calls of the source. The rule behind the calls is not given here.

With `CC[C@@]1(O)CCc2c(O)c3c(c(O)c2[C@H]1O[C@H]1C[C@H](N(C)C)[C@@H](O[C@H]2C[C@H](O)[C@@H](O[C@H]4CC[C@H](O)[C@H](C)O4)[C@H](C)O2)[C@H](C)O1)C(=O)c1cccc(O)c1C3=O`, the result in assay [1], in [3], in assay [4], in assay [5] and in assay [6] was inactive. Moreover, the inhibition entry in assay [2] and in assay [7] was “inactive” throughout.

Take `CO[C@H](C(=O)[C@@H](O)[C@@H](C)O)[C@@H]1Cc2cc3cc(O[C@H]4C[C@@H](O[C@@H]5C[C@@H](O)[C@H](O)[C@@H](C)O5)[C@H](O)[C@@H](C)O4)c(C)c(O)c3c(O)c2C(=O)[C@H]1O[C@H]1C[C@@H](O[C@@H]2C[C@@H](O)[C@@H](O[C@@H]3C[C@](C)(O)[C@H](O)[C@@H](C)O3)[C@@H](C)O2)[C@H](O)[C@@H](C)O1`: the inhibition entry in assay [2] is “inactive”.

With `CC[C@@]1(O)C[C@H](O[C@H]2C[C@H](N(C)C)[C@@H](O[C@H]3C[C@H](O)[C@@H](O[C@H]4CC[C@H](O)[C@H](C)O4)[C@H](C)O3)[C@H](C)O2)c2c(O)c3c(c(O)c2[C@H]1O[C@H]1C[C@H](N(C)C)[C@@H](O[C@H]2CC[C@H](O[C@H]4CC[C@H](O)[C@H](C)O4)[C@H](C)O2)[C@H](C)O1)C(=O)c1cccc(O)c1C3=O` [COSMOMYCIN C], the outcome in [8], in assay [9], in assay [10], in [11] and in [12] was Active. In addition, the result in assay [1], in assay [5] and in assay [6] was inactive. In addition, the Activity came to 54.64% in assay [13]; 10.52% in assay [14]; 26.91% in assay [15]; 7.93% in [16]; 59.53% in [17]; 8.82% in assay [18]. Further, the Activity in [19] amounted to 22.18%; in assay [20], 9.47%; in assay [21], 49.9%; in assay [22], 8.78%; in assay [23], 15.81%; in assay [24], 25.52%. In addition, the Activity entry in assay [3], in assay [4], in assay [28], in assay [29], in assay [30] and in [31] was “Dose-dependent effect” in each case. The Activity result in assay [32] was “Dose-dependent effect”. Also, the inhibition result in assay [2] and in assay [7] was “Dose-dependent effect” in each case. In [3] (MDA-MB-468, 24 h), the IC50 came out at 0.21 µM. The inhibition entry in assay [25] and in [27] was “Active” each time. Further, the inhibition result in [26] is “inactive”.
